From US20180050078A1, “COMPOSITION FOR IMPROVING OR PREVENTING NONALCOHOLIC FATTY LIVER” (KOHJIN LIFE SCIENCES CO., LTD., priority 2015, published 2018)

Test system: Mice (C57/B6J) fed with high-fat food
Description: Mice (C57/B6J, 8 weeks old male) were divided into 4 groups (5 animals each), and the first group (DB) was freely fed with ordinary food (CertifiedDiet “MF” manufactured by Oriental Yeast Co., ltd.). The second group (HFD) was freely fed with high-fat food (High Fat Diet 32, manufactured by CLEA Japan, Inc.), […].
When the mouse was 20 weeks old, the body weight, the liver weight, the serum aspartate aminotransferase (AST), the alanine aminotransferase (ALT), the serum triglyceride (TG), the free fatty acid value (FFA) and the total cholesterol value (T-cho) were measured.

[1] = HFD6 (6 mg/kg/day) and HFD60 (60 mg/kg/day) groups in comparison to HFD group, 20 weeks old
[2] = high-fat food mice, glutathione in water 6 or 60 mg/kg/day, 20 weeks old

In the case of `N[C@@H](CCC(=O)N[C@@H](CS)C(=O)NCC(=O)O)C(=O)O` [glutathione], the “FFA (free fatty acid value)” value [1] was “significant decrease”, the “T-cho (total cholesterol value)” value [1] was “significant decrease” and the “TG (triglyceride value)” value [1] was “significant decrease”. The “serum AST, ALT, TG, FFA and T-cho: dose dependence” value (HFD6 group compared with HFD60 group) was “decrease dependently on the concentration”, the “consumption amounts of feed and water” value (all of the groups (DB, HFD, HFD6, HFD60)) was “no significant difference” and the “deposition of fat on the liver by high-fat food” value (high-fat food mice, glutathione 6 or 60 mg/kg/day) was “suppressed”. For the same compound, the body weight [2] was “decrease of the body weight was recognized”, the liver weight [2] was “decreased dependently on the concentration” and the “ratio of liver weight/body weight” value [2] was “decrease of the body weight ratio was also recognized”.
